Laboratory results as given in PMC10040380 (Cell Reports Medicine, 2023).

Molecular target: T1, KCC2 (Homo sapiens, UniProt Q9H2X9)
T1 sequence (Q9H2X9 1-1116 isoform Q9H2X9-2): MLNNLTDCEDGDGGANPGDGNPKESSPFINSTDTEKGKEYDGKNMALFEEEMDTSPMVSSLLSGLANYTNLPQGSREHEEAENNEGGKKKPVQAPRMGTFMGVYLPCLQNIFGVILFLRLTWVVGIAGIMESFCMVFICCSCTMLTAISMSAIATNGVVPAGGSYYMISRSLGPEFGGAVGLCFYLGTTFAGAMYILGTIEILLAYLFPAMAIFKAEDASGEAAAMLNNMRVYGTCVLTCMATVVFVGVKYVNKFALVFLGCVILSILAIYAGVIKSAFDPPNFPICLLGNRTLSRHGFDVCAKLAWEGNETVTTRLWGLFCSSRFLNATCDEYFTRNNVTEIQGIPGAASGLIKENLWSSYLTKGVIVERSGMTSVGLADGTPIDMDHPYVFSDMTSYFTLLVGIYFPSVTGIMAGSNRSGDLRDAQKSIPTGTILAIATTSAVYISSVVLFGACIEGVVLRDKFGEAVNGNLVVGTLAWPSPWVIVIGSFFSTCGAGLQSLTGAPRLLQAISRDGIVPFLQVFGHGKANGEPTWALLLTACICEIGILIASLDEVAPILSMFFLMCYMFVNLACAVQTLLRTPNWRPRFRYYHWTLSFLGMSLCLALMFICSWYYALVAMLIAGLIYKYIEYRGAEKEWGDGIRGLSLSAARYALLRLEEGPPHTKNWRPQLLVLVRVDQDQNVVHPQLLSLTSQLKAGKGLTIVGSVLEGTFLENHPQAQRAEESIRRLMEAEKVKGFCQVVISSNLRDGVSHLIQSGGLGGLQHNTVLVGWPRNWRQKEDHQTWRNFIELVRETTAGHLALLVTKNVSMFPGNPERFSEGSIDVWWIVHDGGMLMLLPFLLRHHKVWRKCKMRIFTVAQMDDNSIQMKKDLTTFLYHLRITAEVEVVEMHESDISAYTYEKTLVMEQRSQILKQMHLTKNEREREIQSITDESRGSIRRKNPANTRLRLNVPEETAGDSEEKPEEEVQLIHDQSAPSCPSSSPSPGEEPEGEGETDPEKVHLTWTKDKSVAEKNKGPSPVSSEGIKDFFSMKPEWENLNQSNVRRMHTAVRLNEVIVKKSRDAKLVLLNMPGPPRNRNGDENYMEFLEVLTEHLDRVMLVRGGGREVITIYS
Test: Tl influx FLIPR assay in HEK-293 cells expressing KCC2
Type: cell-based

For OV350 [compound 350], the EC50 was 261 ± 22.2 nM.
